We go through three molecules from publication PMC12567096, “An Efficacy- and In Vivo Exposure-Oriented Integrated Study to Investigate the Effective Components of Qishen Granule” (Pharmaceuticals, 2025).

The structures appear in SMILES notation.

Data set [1] relates to OGD/R-induced H9c2 cells. Briefly: Protective effect on OGD/R-induced H9c2 cells (CCK-8 cell viability). Format: cell-based, rat. The note with it: for H9c2 cell survival after OGD/R (in words): 1, 10, 25, 50 and 100 μM prior to OGD/R, vs model group. As for the experimental part:
(§1) Rat myocardial H9c2 cells (purchased from China Infrastructure of Cell Line Resources, Institute of Basic Medical Sciences, Chinese Academy of Medical Sciences) were cultured in DMEM supplemented with 10% fetal bovine serum (FBS), Penicillin (100 U/mL), and Streptomycin (100 μg/mL) at 37 °C under a humidified atmosphere of 5% CO2 and 95% air. For OGD/R treatment, H9c2 cells were cultured in glucose-free DMEM under hypoxic conditions (95%N2 + 5%CO2) for 4 h at 37 °C followed by complete medium under normal conditions with air (95%) and CO2 (5%) for 2 h. A control group was maintained under normal culture conditions (with glucose-containing DMEM and 5% CO2) without undergoing OGD/R treatment. CCK8 was used to assess cell viability. After treatment, H9c2 cells were seeded in 96-well plates, with each well supplemented with 10 μL of CCK-8 solution and then incubated for 1 h. Finally, the absorbance at 450 nm was detected by a microplate reader (Model […] 200 PRO, TECAN, Grodig, Austria).
When evaluating the cytotoxicities of the absorbed compounds, the H9c2 cells were seeded in 96-well plates at a density of 1 × 10^4 cells/well; when cells reached 80% confluence, they were treated with 25 and 50 μM of the 24 analytes to screen the non-toxic concentration ranges. Afterward, the protective effects were verified by assessing the cell viability when treating with different concentrations (1, 10, 25, 50, and 100 μM) of the analytes prior to OGD/R treatment.

For data set [2], the system named is H9c2 cells. Briefly: Cytotoxicity on H9c2 cells (CCK-8). Format: cell-based, rat. The note with it: H9c2 cells, n=3. The procedure: as §1
When evaluating the cytotoxicities of the absorbed compounds, the H9c2 cells were seeded in 96-well plates at a density of 1 × 10^4 cells/well; when cells reached 80% confluence, […] Afterward, the protective effects were verified by assessing the cell viability when treating with different concentrations (1, 10, 25, 50, and 100 μM) of the analytes prior to OGD/R treatment.

A short description of data set [3]: Pharmacokinetic study in rats after oral administration of QSG.
Experimental: Ion source parameters were set as follows: temperatures of drying gas and sheath gas were 300 °C and 300 °C, flow rates of drying gas and sheath gas were 7 L/min and 11 L/min, the nebulizer was set at 35 psig, capillary voltage was 3500 V (−), and nozzle voltage was 2000 V (−). […] Chromatographic separations were conducted on a ZORBAX Eclipse Plus C18 column (3.0 × 50 mm, 1.8 μm, Agilent Technologies, California, USA). The mobile phase was composed of 0.1% aqueous FA (A, (v/v)) and 0.1% formic acid methanol (B), the flow rate was set at 0.5 mL/min, and the column oven was maintained at 40 °C.
Protein precipitation was carried out for each time point for plasma samples, calibration samples, or QC samples by introducing four volumes of acetonitrile containing 400 ng/mL of icariin. Then, 10 μL 10% aqueous ascorbic acid (v/v) was spiked into each sample to prevent the oxidation of phenolic compounds. […] An aliquot (450 μL) of the supernatant was transferred and dried under nitrogen vacuum.
The pharmacokinetic parameters were calculated by DAS software (version 2.0) for a non-compartmental analysis.
Data set [4] can be described thus: Concentrations of 24 analytes in QSG treated plasma (Table S5). The note with it: for Concentration: QSG treated plasma, n = 5.
The mark [5] stands for this setting: rat plasma, single oral 7 g/kg QSG, n = 6.
Setting [6] is: Sprague Dawley, rat, plasma, po, 7 g/kg.
Where [7] appears, read: Sprague Dawley, rat, plasma, oral, 7 g/kg.

As for `CC(C)(O)[C@@H]1CC[C@](C)([C@H]2[C@@H](O)C[C@@]3(C)[C@@H]4C[C@H](O[C@@H]5O[C@H](CO)[C@@H](O)[C@H](O)[C@H]5O)[C@H]5C(C)(C)[C@@H](O[C@@H]6OC[C@@H](O)[C@H](O)[C@H]6O)CC[C@@]56C[C@@]46CC[C@]23C)O1` [Astragaloside IV], the “H9c2 cell survival after OGD/R (in words)” value (from here on “H9c2 cell survival”) in data set [1] is “significantly improve H9c2 cell survival rates”. Further, the “Protective effects on OGD/R-induced H9c2 cells (in words)” value in data set [1] (at 50 and 100 μM) is reported as “significant protective effects”. Besides, the Inhibition rate is -6.7 ± 7.1% in data set [2] (25 μM), 7.0 ± 2.1% in data set [2] (50 μM) and 15.0 ± 2.3% in data set [2] (100 μM). The “AUC0→∞” value came to 144.9 ng·h/mL in data set [3] (Table S12, rats, oral QSG) and 144.9 ± 101.2 ng·h/mL in data set [3] (setting [5]). In addition, the AUCi in data set [3] (exposure (AUC0→∞) of the component in rats after oral QSG, as used for ECI) worked out at 144.9. For the same molecule, the Oral relative bioavailability in data set [3] (exposure level (AUC0→∞) compared with the dosage of each compound in QSG) is on record as 0.107%. Further, the “Absorption efficiency / bioavailability (in words)” value in data set [3] (from Table S12, rats, oral QSG) is “relatively higher absorption efficiency”. Further, the AUC0→t in data set [3] (setting [5]) amounted to 55.94 ± 26.16 ng·h/mL. In data set [3] (setting [5]), this molecule registered a Cmax of 12.06 ± 2.010 ng/mL. The molecule also had an MRT in data set [3] (setting [5]) of 6.104 ± 3.716 h. Besides, in data set [3] (setting [5]), the T1/2 was determined as 14.87 ± 9.060 h. The Tmax in data set [3] (setting [5]) was 0.250 ± 0.0920 h. Besides, the “Shape of the plasma concentration–time curve (in words)” value in data set [3] (rats, oral QSG) was “Double peaks”. Moreover, the Concentration in data set [4] (0.17 h) was 7.10 ± 5.941 ng/mL; in data set [4] (0.5 h), 8.655 ± 2.757 ng/mL; in data set [4] (1 h) it was 3.017 ± 3.507 ng/mL; in data set [4] (2 h), 3.783 ± 2.015 ng/mL; in data set [4] (4 h) it was 0.710 ± 1.991 ng/mL; in data set [4] (8 h), 1.337 ± 1.728 ng/mL. The Concentration in data set [4] (12 h) was 2.200 ± 2.015 ng/mL.

For the molecule `O=C(/C=C/c1ccc(O)c(O)c1)O[C@@H]1C[C@](O)(C(=O)O)C[C@@H](O)[C@H]1O` [Chlorogenic acid], the “H9c2 cell survival” value in data set [1] is “significantly improve H9c2 cell survival rates”. In data set [1] (Rattus norvegicus, protective effect against OGD/R injury, H9c2 cell viability), this molecule registered an EC50 of 8.6 µM. Also, the inhibition at 25 µM in data set [2] (Rattus norvegicus, 25 μM, read-out: Inhibition rate) is -1.6 ± 4.9%. Besides, the inhibition at 50 µM in data set [2] (Rattus norvegicus, 50 μM, read-out: Inhibition rate) is 12 ± 1.7%. For the same molecule, the inhibition at 100 µM in data set [2] (Rattus norvegicus, 100 μM, read-out: Inhibition rate) worked out at 15 ± 4.1%. Also, in data set [3] (setting [6]), the AUC worked out at 1420 ng·h/mL, the MRT stood at 7.18 ± 0.978 h, the Tmax was found to be 0.563 ± 0.125 h and the half-life was 9.22 ± 3.27 h. The molecule also registered an AUC(0-inf) in data set [3] (Sprague Dawley, rat, plasma, po, 7 g/kg, AUC0→∞, rat plasma, single oral 7 g/kg QSG, n = 6) of 1420 ± 243 ng·h/mL. In addition, in data set [3] (setting [5]), the AUC0→t stood at 1278 ± 171.4 ng·h/mL and the Cmax is reported as 394.1 ± 6.271 ng/mL. In data set [4] (setting [7]), this molecule returned a concentration at 0.08 h of 66.2 ± 20.1 ng/mL, a concentration at 0.17 h of 99.06 ± 0.162 ng/mL, a concentration at 0.5 h of 395 ± 7.1 ng/mL and a concentration at 1 h of 170 ± 35.7 ng/mL. In data set [4] (setting [7]), this molecule yielded a concentration at 2 h of 77.2 ± 7.26 ng/mL, a concentration at 4 h of 68.1 ± 21 ng/mL, a concentration at 8 h of 51.4 ± 5.49 ng/mL and a concentration at 12 h of 39.1 ± 14.9 ng/mL.

As to `O=C(/C=C/c1ccc(O)c(O)c1)O[C@@H]1C[C@@](O)(C(=O)O)C[C@@H](O)[C@@H]1O` [Neochlorogenic acid], in data set [1], the “H9c2 cell survival” value is given as “significantly improve H9c2 cell survival rates”. In data set [2] (25 μM), the Inhibition rate is recorded as -12.8 ± 1.3%. Moreover, the Inhibition rate in data set [2] (50 μM) is 3.8 ± 2.2%. Also, the Inhibition rate in data set [2] (100 μM) is listed as 5.7 ± 2.3%. Also, the “AUC0→∞” value in data set [3] (Table S12, rats, oral QSG) came out at 1418 ng·h/mL. Further, in data set [3] (setting [5]), the AUC0→t is 167.1 ± 68.93 ng·h/mL, the highest concentration (Cmax) is given as 68.12 ± 4.044 ng/mL, the MRT is 6.104 ± 2.911 h and the Tmax is on record as 0.398 ± 0.093 h.

One may read the Cmax as the highest concentration seen after dosing. A word on the MRT: it is the average time that molecules of a dose stay in the body. As usually defined, the Tmax is the time at which the peak concentration occurs. For orientation: EC50 means the concentration giving half of the maximal effect. As usually defined, the inhibition is the relative decrease from the control value, in per cent. The term AUC denotes the area under the concentration-time curve, a measure of exposure. High values mean high exposure, low ones low exposure. By half-life is commonly meant the time in which the quantity being followed falls by half. The low end stands for fast loss, the high end for slow loss. A word on the AUC(0-inf): it is total exposure, with the tail of the curve extrapolated. The low end stands for low exposure, the high end for high exposure.
